According to ChEMBL document CHEMBL6153170 (J Med Chem, 2025):
pIC50: −log10 of the molar value. Calls of active or inactive are those of the source. The rule behind the calls is not given here.

What was measured:
[1] = target: T1, Protein deacetylase HDAC6 (Mus musculus) (UniProt Q9Z2V5); experiment: Inhibition of HDAC6 in mouse B16-F10 cells assessed as increase in acetylated alpha-tubulin level incubated for 12 hrs by Western blot analysis; assay type: cell-based; conditions: dose 0.1-2 µM
T1 sequence (whole entry): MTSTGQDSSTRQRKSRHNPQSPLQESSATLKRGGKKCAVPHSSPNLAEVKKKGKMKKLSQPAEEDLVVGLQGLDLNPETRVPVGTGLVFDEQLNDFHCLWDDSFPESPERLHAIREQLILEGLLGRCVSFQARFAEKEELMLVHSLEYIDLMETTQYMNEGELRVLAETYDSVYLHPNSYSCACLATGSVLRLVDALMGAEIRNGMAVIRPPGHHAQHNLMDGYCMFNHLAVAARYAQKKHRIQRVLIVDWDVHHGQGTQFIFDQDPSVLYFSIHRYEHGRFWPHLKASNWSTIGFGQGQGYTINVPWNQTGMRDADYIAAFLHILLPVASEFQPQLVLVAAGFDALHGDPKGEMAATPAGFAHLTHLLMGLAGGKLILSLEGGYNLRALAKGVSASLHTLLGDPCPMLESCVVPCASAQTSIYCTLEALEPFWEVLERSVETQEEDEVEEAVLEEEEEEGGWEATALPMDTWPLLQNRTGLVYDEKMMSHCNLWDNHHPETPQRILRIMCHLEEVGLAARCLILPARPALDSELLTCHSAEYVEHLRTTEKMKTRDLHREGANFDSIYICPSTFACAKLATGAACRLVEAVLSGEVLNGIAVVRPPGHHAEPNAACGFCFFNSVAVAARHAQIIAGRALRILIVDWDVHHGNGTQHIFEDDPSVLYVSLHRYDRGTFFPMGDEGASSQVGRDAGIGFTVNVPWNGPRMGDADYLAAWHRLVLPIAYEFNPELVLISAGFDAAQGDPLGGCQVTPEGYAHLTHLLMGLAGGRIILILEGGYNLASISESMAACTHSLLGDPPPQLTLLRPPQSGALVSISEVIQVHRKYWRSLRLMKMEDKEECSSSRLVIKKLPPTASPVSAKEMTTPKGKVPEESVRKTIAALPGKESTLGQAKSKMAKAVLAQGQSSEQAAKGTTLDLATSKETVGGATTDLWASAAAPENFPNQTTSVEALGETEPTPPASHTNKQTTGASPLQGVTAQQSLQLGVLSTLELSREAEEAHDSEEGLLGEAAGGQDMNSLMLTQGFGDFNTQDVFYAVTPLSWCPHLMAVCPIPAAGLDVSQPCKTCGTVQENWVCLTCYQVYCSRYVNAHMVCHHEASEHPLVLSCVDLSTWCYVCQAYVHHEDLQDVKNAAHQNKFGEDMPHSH

[2] = Toxicity in C57 mouse assessed as myelosuppression by measuring hematocrit level at 20 mg/kg/day, IG administered for 14 days by heat map analysis; assay type: organism-based; conditions: in vivo, po, 336 h, time 14 day
HepG2 [3] = experiment: cells; conditions: Homo sapiens, HepG2, 48 h
HepG2 [4] = experiment: Cytotoxicity against human HepG2 cells assessed as reduction in cell viability at 3.3 to 10 uM incubated for 48 hrs by MTT assay; assay type: functional, cell-based; conditions: dose 3.3-10 µM
[5] = target: T1, Protein deacetylase HDAC6 (Mus musculus); experiment: In vivo inhibition of HDAC6 in C57BL/6 mouse model implanted with mouse B16-F10 cells assessed as increase in acetylated alpha-tubulin protein level in tumor at 20 mg/kg/day, ip administered for 14 days by Western blot analysis; assay type: functional, organism-based; conditions: time 14.0 day
[6] = Tmax in male Sprague-Dawley rat at 2 mg/kg, iv measured after 48 hrs by triple quadrupole mass spectrometric analysis; assay type: ADME, organism-based; conditions: in vivo

- inhibition [1]: Dose-dependent-effect
- pIC50 (HepG2 [3]): 5.02
- inhibition [5]: Active
- Tmax [6]: 4.8 min
Compound: COc1nc(-c2cccc(-c3ccccc3)c2C)ccc1CNCCCCCCC(=O)NO
- Activity [2]: Non-toxic
- Activity (HepG2 [4]): Active; Mild Cytotoxicity Observed
